Measurements as given in ChEMBL document CHEMBL3217464, “Antimicrobial activity and mode of action of novel, N-terminal tagged tetra-peptidomimetics” (Medchemcomm, 2013).
In brackets after ≈: the same amount, converted by molar mass. Activity calls are given as the source filed them. The rule behind the calls is not given here. Where a SMILES comes first, the peptide text is derived from it. [ ]: non-standard residue; d: D form. The star is where a group is joined. Benzoyl(4-(biphenyl-4-yl)) = O=C(c1ccc(-c2ccc(-c3ccccc3)cc2)cc1)*; Linoleoyl = CCCCC/C=C\C/C=C\CCCCCCCC(=O)*; NMeL = CN[C@@H](CC(C)C)C(=O)O; NMeV = CN[C@H](C(=O)O)C(C)C; X1 = Nc1ccc(/C=C/C(=O)*)cc1; Orn = NCCC[C@H](N)C(=O)O; 2Abz = Nc1ccccc1C(=O)O

Assays:
Lipid bilayer [1] = assay: Binding affinity to bacterial membrane mimic POPC/POPG (7:3 w/w) SUVs assessed as blue shift in tryptophan emission maxima at 3 uM after 2 mins by spectrofluorimeter analysis
Lipid bilayer [2] = assay: Binding affinity to mammalian membrane mimic POPC SUVs assessed as blue shift in tryptophan emission maxima at 3 uM after 2 mins by spectrofluorimeter analysis
[3] = Induction of membrane permeabilization in POPC/POPG (7:3 w/w) LUVs assessed as graded leakage of encapsulated calcein dye at 41.01 ug/ml after 5 mins by spectrofluorimeter analysis
[4] = Hemolytic activity against human erythrocytes assessed as hemoglobin release up to 500 ug/ml after 1 hr by ELISA; format: ADME, cell-based; conditions: erythrocyte
Staphylococcus aureus [5] = assay: Antibacterial activity against methicillin-resistant Staphylococcus aureus ATCC 33591 after 18 hrs by CLSI microdilution broth assay; format: functional; conditions: ATCC 33591, 18 h
Acinetobacter baumannii = assay: Antibacterial activity against Acinetobacter baumannii ATCC 19606 after 18 hrs by CLSI microdilution broth assay; format: functional; conditions: ATCC 19606, 18 h
Bacillus subtilis = assay: Antibacterial activity against Bacillus subtilis ATCC 6633 after 18 hrs by CLSI microdilution broth assay; format: functional; conditions: ATCC 6633, 18 h
Pseudomonas aeruginosa = assay: Antibacterial activity against Pseudomonas aeruginosa ATCC 25668 after 18 hrs by CLSI microdilution broth assay; format: functional; conditions: ATCC 25668, 18 h
Staphylococcus aureus [6] = assay: Antibacterial activity against Staphylococcus aureus ATCC 29213 after 18 hrs by CLSI microdilution broth assay; format: functional; conditions: ATCC 29213, 18 h
Escherichia coli = assay: Antibacterial activity against Escherichia coli ATCC 11775 after 18 hrs by CLSI microdilution broth assay; format: functional; conditions: ATCC 11775, 18 h
Staphylococcus aureus [7] = assay: Induction of membrane depolarization in methicillin-resistant Staphylococcus aureus ATCC 33591 at 12.5 ug/ml by DiSC3(5) dye by fluorimetric assay; format: functional
[8] = Stability of the compound assessed as compound digestion at 100 ug/ml after 10 hrs by RP-HPLC analysis in presence of proteinase-K; format: ADME; conditions: read-out: Drug degradation
[9] = Hemolytic activity against human erythrocytes assessed as hemoglobin release at 500 ug/ml after 1 hr by ELISA; format: ADME, cell-based, Erythrocyte; conditions: read-out: Activity
Aspergillus fumigatus = assay: Antifungal activity against Aspergillus fumigatus assessed as growth inhibition up to 125 ug/ml by disk diffusion method; format: functional, organism-based
Candida albicans = assay: Antifungal activity against Candida albicans assessed as growth inhibition up to 125 ug/ml by disk diffusion method; format: functional, organism-based
Staphylococcus aureus [10] = assay: Induction of morphological alterations in methicillin-resistant Staphylococcus aureus ATCC 33591 assessed as rough and damaged cell surface and formation of blebs and massive rupturing at 5XMIC after 30 mins by scanning electron microscopy; format: functional, organism-based
Lipid bilayer [11] = assay: Binding affinity to bacterial membrane mimic PC:PG (7:3 w/w) LUVs by circular dichroism spectrophotometry
Staphylococcus aureus [12] = assay: Induction of membrane depolarization in methicillin-resistant Staphylococcus aureus ATCC 33591 at 7.5 ug/ml by DiSC3(5) dye by fluorimetric assay; format: functional
Staphylococcus aureus [13] = assay: Induction of membrane depolarization in methicillin-resistant Staphylococcus aureus ATCC 33591 by DiSC3(5) dye by fluorimetric assay; format: functional, organism-based
[14] = Induction of membrane permeabilization in POPC/POPG (7:3 w/w) LUVs assessed as burst release of calcein dye at 5.68 ug/ml after 5 mins by spectrofluorimeter analysis
Lipid bilayer [15] = assay: Binding affinity to mammalian membrane mimic POPC SUVs assessed as red shift in tryptophan emission maxima at 3 uM after 2 mins by spectrofluorimeter analysis
[16] = Induction of membrane permeabilization in POPC/POPG (7:3 w/w) LUVs assessed as leakage of encapsulated calcein dye at 14.01 ug/ml after 5 mins by spectrofluorimeter analysis
[17] = Stability of the compound assessed as compound digestion at 100 ug/ml after 24 hrs by RP-HPLC analysis in presence of proteinase-K; format: ADME; conditions: read-out: Drug degradation
Staphylococcus aureus [18] = assay: Induction of morphological alterations in methicillin-resistant Staphylococcus aureus ATCC 33591 assessed as cell clustering and ruptured membrane at 5XMIC after 30 mins by scanning electron microscopy; format: functional, organism-based
[19] = Binding affinity to gram-negative outer membrane LPS micelles by circular dichroism spectrophotometry

| SMILES | Activity (Lipid bilayer [1]) | Tryptophan emission maximum blue shift (Lipid bilayer [2]) | Activity [4] | MIC (Staphylococcus aureus [5]) | MIC (Acinetobacter baumannii) | MIC (Bacillus subtilis) | MIC (Pseudomonas aeruginosa) | MIC (Staphylococcus aureus [6]) | MIC (Escherichia coli) | Activity (Staphylococcus aureus [7]) | Activity [14] | further results |
| --- | --- | --- | --- | --- | --- | --- | --- | --- | --- | --- | --- | --- |
| NCCC[C@H](NC(=O)c1ccccc1N)C(=O)N[C@@H](CCCN)C(=O)N[C@@H](Cc1c[nH]c2ccccc12)C(=O)N[C@@H](Cc1c[nH]c2ccccc12)C(N)=O (H-[2Abz][Orn][Orn]WW-NH2) | 5 nm | 1 nm | Non-toxic | 64 µg/mL (≈ 86.9 µM) | 64 µg/mL (≈ 86.9 µM) | 64 µg/mL (≈ 86.9 µM) | 16 µg/mL (≈ 21.7 µM) | 64 µg/mL (≈ 86.9 µM) | 64 µg/mL (≈ 86.9 µM) | 8.9% |  | Activity [3]: 69.9% |
| NCCC[C@H](NC(=O)c1ccc(-c2ccc(-c3ccccc3)cc2)cc1)C(=O)N[C@@H](CCCN)C(=O)N[C@@H](Cc1c[nH]c2ccccc12)C(=O)N[C@@H](Cc1c[nH]c2ccccc12)C(N)=O ({Benzoyl(4-(biphenyl-4-yl))}-[Orn][Orn]WW-NH2) | 30 nm | 2 nm |  | 8 µg/mL (≈ 9.15 µM) | 2 µg/mL (≈ 2.29 µM) | 2 µg/mL (≈ 2.29 µM) | 4 µg/mL (≈ 4.58 µM) | 2 µg/mL (≈ 2.29 µM) | 2 µg/mL (≈ 2.29 µM) |  | 76.4% | metabolised at 10 h, 100 ug/ml [8]: 14%; hemolysis at 1 h, 500 ug/ml [9]: 50%; growth inhibition (GI) (Aspergillus fumigatus): inactive; growth inhibition (GI) (Candida albicans): inactive; Activity (Staphylococcus aureus [10]): Active; Activity (Lipid bilayer [11]): Active; Activity (Staphylococcus aureus [12]): 81%; Activity (Staphylococcus aureus [13]): Dose-dependent effect |
| CN(C)[C@@H]1C(O)=C(C(N)=O)C(=O)[C@@]2(O)C(O)=C3C(=O)c4c(O)cccc4[C@@](C)(O)[C@H]3C[C@@H]12 [TETRACYCLINE] |  |  |  | > 50 µg/mL |  |  | 0.3 µg/mL (≈ 0.675 µM) | 0.3 µg/mL (≈ 0.675 µM) | 0.3 µg/mL (≈ 0.675 µM) |  |  |  |
| NCCC[C@H](NC(=O)/C=C/c1ccc(N)cc1)C(=O)N[C@@H](CCCN)C(=O)N[C@@H](Cc1c[nH]c2ccccc12)C(=O)N[C@@H](Cc1c[nH]c2ccccc12)C(N)=O (X1-[Orn][Orn]WW-NH2) | 2 nm |  | Non-toxic | 128 µg/mL (≈ 168 µM) | 64 µg/mL (≈ 83.9 µM) | 32 µg/mL (≈ 41.9 µM) | 16 µg/mL (≈ 21 µM) | 64 µg/mL (≈ 83.9 µM) | 32 µg/mL (≈ 41.9 µM) | 16.8% | 58.5% | Activity (Lipid bilayer [15]): 2 nm; Activity [16]: 68.3% |
| CN[C@H](C(=O)N[C@@H](CCCN)C(=O)N[C@@H](CCCN)C(=O)N[C@@H](Cc1c[nH]c2ccccc12)C(=O)N[C@@H](Cc1c[nH]c2ccccc12)C(N)=O)C(C)C (H-[NMeV][Orn][Orn]WW-NH2) | 3 nm | 0 nm | Non-toxic | 256 µg/mL (≈ 350 µM) | 64 µg/mL (≈ 87.6 µM) | 128 µg/mL (≈ 175 µM) | 128 µg/mL (≈ 175 µM) | 128 µg/mL (≈ 175 µM) | 256 µg/mL (≈ 350 µM) | 17.2% |  | Activity [3]: 41.8% |
| NCCC[C@H](NC(=O)[C@@H](N)CCCN)C(=O)N[C@@H](Cc1c[nH]c2ccccc12)C(=O)N[C@@H](Cc1c[nH]c2ccccc12)C(N)=O (H-[Orn][Orn]WW-NH2) | 3 nm | 2 nm | Non-toxic |  | 512 µg/mL (≈ 829 µM) | 512 µg/mL (≈ 829 µM) | 256 µg/mL (≈ 414 µM) | 128 µg/mL (≈ 207 µM) | 512 µg/mL (≈ 829 µM) | 5.6% |  |  |
| CCCCC/C=C\C/C=C\CCCCCCCC(=O)N[C@@H](CCCN)C(=O)N[C@@H](CCCN)C(=O)N[C@@H](Cc1c[nH]c2ccccc12)C(=O)N[C@@H](Cc1c[nH]c2ccccc12)C(N)=O (Linoleoyl-[Orn][Orn]WW-NH2) | 10 nm | 2 nm | Non-toxic | 4 µg/mL (≈ 4.54 µM) | 2 µg/mL (≈ 2.27 µM) | 4 µg/mL (≈ 4.54 µM) | 2 µg/mL (≈ 2.27 µM) | 2 µg/mL (≈ 2.27 µM) | 2 µg/mL (≈ 2.27 µM) | 100% | 72.3% | metabolised at 24 h, 100 ug/ml [17]: 36%; metabolised at 10 h, 100 ug/ml [8]: 17%; growth inhibition (GI) (Aspergillus fumigatus): inactive; growth inhibition (GI) (Candida albicans): inactive; Activity (Staphylococcus aureus [18]): Active; Activity [19]: Active; Activity (Staphylococcus aureus [12]): 84%; Activity (Staphylococcus aureus [13]): Dose-dependent effect |
| CN[C@@H](CC(C)C)C(=O)N[C@@H](CCCN)C(=O)N[C@@H](CCCN)C(=O)N[C@@H](Cc1c[nH]c2ccccc12)C(=O)N[C@@H](Cc1c[nH]c2ccccc12)C(N)=O (H-[NMeL][Orn][Orn]WW-NH2) | 4 nm | 1 nm | Non-toxic | 256 µg/mL (≈ 344 µM) | 128 µg/mL (≈ 172 µM) | 64 µg/mL (≈ 85.9 µM) | 128 µg/mL (≈ 172 µM) | 128 µg/mL (≈ 172 µM) | 64 µg/mL (≈ 85.9 µM) | 18.9% |  |  |
